This note sets out measurements from article PMC9768754, “Enriching Chemical Space of Bioactive Scaffolds by New Ring Systems: Benzazocines and Their Metal Complexes as Potential Anticancer Drugs” (Inorganic Chemistry, 2022).

One series deals with A549. Put plainly: MTT cytotoxicity assay, monolayer culture. It is filed as cell-based, human. The settings on record: 2D monolayer, read-out: IC50 (μM) ± S.D. A549. The source says: (§1) The cytotoxicity of metal-free indolobenzazocines HL^1–HL^5 and their metal complexes 1a, 1b, and 2–5 was investigated by the colorimetric MTT assay in a panel of four human cancer cell lines, namely, human colon carcinoma HCT116 and LS-174, breast adenocarcinoma MDA-MB-361, and lung adenocarcinoma A549, as well as in human non-malignant cell line MRC-5 maintained as monolayer culture. Cisplatin or cis-diamminedichloridoplatinum(II) (CDDP), a well-known chemotherapeutic agent, was used as a positive control. The results obtained after 72 h of continuous drug action are presented as IC50 values (μM) in Table 1.
(§2) Human tumor cell lines derived from human colorectal carcinoma, LS-174 and HCT116, human breast adenocarcinoma, MDA-MB-361, human lung adenocarcinoma, A549, and non-tumor human fetal lung fibroblast cell line, MRC-5, were maintained as a monolayer culture in the Roswell Park Memorial Institute (RPMI) 1640 nutrient medium (Sigma Chemicals Co, USA). RPMI 1640 medium was prepared in sterile ionized water, supplemented with penicillin (100 IU/mL), streptomycin (200 μg/mL), 4-(2-hydroxyethyl) piperazine-1-ethanesulfonic acid (HEPES) (25 mM), L-glutamine (3 mM), and 10% of heat-inactivated fetal calf serum (FCS) (pH = 7.2). The cells were grown at 37 °C in a humidified atmosphere containing 5% CO2.
(§3) Cells were seeded into 96-well culture plates (Thermo Scientific Nunc) at cell densities of 5000 cells per well (HCT116, A549, and MRC-5) and 8000 cells/well (LS-174 and MDA-MB-361) in 100 μL of cell culture medium and left overnight. Eleven tested compounds were dissolved in DMSO to the stock concentration of 20 mM immediately before the experiment, whereas further dilutions were made in the culture medium so that the final concentration of DMSO never exceeded 1% (v/v). Cisplatin (cis-diamminedichloridoplatinum(II), CDDP) was used as a reference compound. After 72 h of continuous incubation, MTT solution (3-(4.5-dimethylthiazol-2-yl)-2.5-diphenyltetrazolium bromide, Sigma-Aldrich) was added to each well (5 mg/mL).[63] The culture plates were incubated at 37 °C for the next 4 h, and finally, 10% sodium dodecyl sulfate (SDS) was added to dissolve formed formazan crystals. Absorbances were measured after 24 h on a microplate reader (Thermo Labsystems Multiscan EX 200–240 V) at a wavelength of 570 nm.
In general terms: Tetrazolium dyes change colour on reduction, which living cells bring about.

The test system of a further series is HCT116. Put plainly: MTT cytotoxicity assay, monolayer culture. It is filed as cell-based, human. The settings on record: 72 h continuous drug action, 2D monolayer, read-out: IC50 (μM) ± S.D. HCT116.
Text: as §1, §2, §3

The subject of the next series is LS-174. Put plainly: MTT cytotoxicity assay, monolayer culture. It is filed as cell-based, human. The settings on record: 2D monolayer, read-out: IC50 (μM) ± S.D. LS-174.
Text: as §1, §2, §3

The next series relates to MDA-MB-361. Put plainly: MTT cytotoxicity assay, monolayer culture. It is filed as cell-based, human. As to conditions: 72 h continuous drug action, 2D monolayer, read-out: IC50 (μM) ± S.D. MDA-MB-361.
Text: as §1, §2, §3

The test system of another series is MRC-5. Put plainly: MTT cytotoxicity assay, monolayer culture. The format is cell-based, human. As to conditions: non-malignant cell line, read-out: IC50 (μM) ± S.D. MRC-5.
Text: as §1, §2, §3

The nature of series [1]: Stability in aqueous solution containing 1% DMSO by UV-vis spectroscopy. It is filed as physicochemical. As to conditions: over 48 h. The method, then:
The stability of ligands HL^2 and HL^3 in aqueous solution containing 1% DMSO over 24 and 48 h was monitored by UV–vis spectroscopy (Figure S30 in the Supporting Information). Similarly, the behavior of complexes 1a and 1b as well as 2 and 3 was investigated in aqueous solutions containing 1% DMSO over 12 and 48 h by optical spectroscopy (Figures S31 and S32). […] High thermodynamic and kinetic stability of five-coordinate complexes reported herein can presumably be explained in terms of hard and soft acids and bases theory. Cu^2+ as a borderline metal ion is expected to bind to a soft base, for example, S atom instead of terminal N atom, as is the case for thiosemicarbazides. However, the hard–soft character of the metal ion might be altered by the other ligands attached due to symbiotic effects.[30] This might be the case herein, where bonding of copper(II) to four hard base ligands, namely, to two N atoms (N7 and N15 in Figure 1) and two Cl^– co-ligands, as well as to one borderline base N(pyridine) atom, can reduce the softness of Cu^2+, leading to increased stability of the complexes.

Series [2] in a line: Solubility in water/1% DMSO. It is filed as physicochemical.
The test system of another series is HCT116 MCTS. Put plainly: MTT assay in 3D multicellular tumor spheroid (MCTS) model. The format is cell-based, human. The settings on record: 3D MCTS, 72 h continuous drug action, read-out: IC50 (μM) ± S.D. HCT116, 3D cell culture model. The source says: (§4) Due to the complex tissue environment, 3D multicellular tumor spheroid (MCTS) models mimic the in vivo architecture closer than 2D cell cultures, thereby allowing more precise prediction of effectiveness of organic drug candidates as well as metal-based ones in animal models.[41]−[44] The efficacy of HL^5, 5, and cisplatin in the 3D MCTS model was investigated in two human colorectal cancer cell lines (CRC) LS-174 and HCT116. We used ultra-low attachment (ULA) plates for the growth of spheroids. Spheroids were incubated for 72 h and then photographed, and IC50 values were determined using MTT assay. Tumor spheroids of diameter >500 μm selected for treatment reflect to a certain extent the tumor complexity as they are composed of several specialized areas and layers where cells show different phenotypic, functional, and metabolic behaviors.[45] They display an organized architecture with an external layer composed of proliferating cells, an intermediate zone composed of quiescent and senescent cells, and an inner apoptotic and necrotic core which is the result of the reduced distribution of nutrients and oxygen in these areas.[46],[47]
(§5) The MCTSs as 3D cell culture models were established by seeding cells at optimized densities between 500 and 1500 cells/well in the ultra-low attachment (ULA) U96-well plate Thermo Scientific Nunclon Sphera in their respective culture media.[34] […]

The test system of another series is LS-174 MCTS. The description is as above. It is filed as cell-based, human. The settings on record: 3D MCTS, 72 h continuous drug action, read-out: IC50 (μM) ± S.D. LS-174, 3D cell culture model.
Text: as §4, §5

The subject of a further series is HCT116 cells. Put plainly: Annexin V-FITC/PI apoptosis assay by flow cytometry. The format is cell-based, human. The settings on record: HCT116, 48 h, 3× IC50; non-treated control 2.29%. The text has this: The obtained experimental data are presented in Figure 4 as percentages of early apoptotic cells (Annexin V-positive/PI-negative staining), late apoptotic and necrotic cells (Annexin V-positive/PI-positive staining), and dead cells (Annexin V-negative/PI-positive staining). By the current test (BD Pharmingen protocol)[39] for the cells which are already dead (Annexin V-negative/PI-positive staining), we cannot distinguish between types of the occurred cell death.
Quantitative analysis of apoptotic and necrotic cell death induced by the investigated complexes and CDDP was performed by Annexin V-FITC/PI assay. 2 × 10^5 HCT116 or 3 × 10^5 LS-174 cells were seeded into six-well plates (Thermo Scientific Nunc), and after 24 h of growth, cells were treated with tested compounds or CDDP. Following the 24 h and 48 h incubation time, cells were harvested and resuspended in 200 μL 1 × Binding Buffer (10 mM HEPES/NaOH pH 7.4, 140 mM NaCl, 2.5 mM CaCl2). 100 μL of the cell suspension (∼1 × 10^5 cells) was transferred to a 5 mL round-bottom polystyrene tube (Falcon, Corning) and mixed with 5 μL of both FITC Annexin V (BD Pharmingen[39]) and PI (50 μg/mL in PBS).[65] […] Samples were analyzed using an FACS BD Calibur flow cytometer (Becton–Dickinson, Heidelberg Germany) and Cell Quest computer software.

Read-outs that look alike come from different tables or passages of the source. Bounds are passed on as bounds.

As to `Cc1ccc(C(C)C)cc1.O=C1NCCc2ccccc2-c2[nH]c3ccc([N+]4=Cc5cccc[n+]5[Ru-]4[Cl])cc3c21.[Cl-]` [1a], the IC50 is 160 ± 18.2 µM in the series on A549 (72 h continuous drug action); 32.9 ± 7.1 µM in the series with HCT116; > 200 µM with LS-174 (72 h continuous drug action); 91.2 ± 3.5 µM in the series on MDA-MB-361; 89.8 ± 2.1 µM in the series with MRC-5 (72 h continuous drug action). The “stability by UV-vis absorption spectra” value in series [1] is “remained intact”.

As for `Cc1ccc(C(C)C)cc1.O=C1NCCc2ccccc2-c2[nH]c3ccc([N+]4=Cc5cccc[n+]5[Os-]4[Cl])cc3c21.[Cl-]` [1b], the IC50 amounted to 91 ± 9.3 µM in the series on A549 (72 h continuous drug action); 40.2 ± 6.7 µM with HCT116; 182 ± 2.1 µM in the series with LS-174 (72 h continuous drug action); 71.9 ± 2.6 µM with MDA-MB-361; 84.8 ± 6.6 µM with MRC-5 (72 h continuous drug action). Further, the “Solubility in water/1% DMSO” value in series [2] is listed as ≥ 1.0 mg mL^–1. For the same compound, the “stability by UV-vis absorption spectra” value in [1] is “remained intact”.

As to `N.N.[Cl][Pt][Cl]` [CDDP, cis-diamminedichloridoplatinum(II), reference compound], the IC50 was determined as 17.4 ± 3.5 µM in the series with A549 (72 h continuous drug action); 13.6 ± 1.1 µM in the series on HCT116; 19 ± 0.5 µM in the series on LS-174 (72 h continuous drug action); 26.4 ± 3.7 µM in the series with MDA-MB-361; 8 ± 1.1 µM in the series on MRC-5 (72 h continuous drug action); 19.6 ± 2.2 µM in the series on HCT116 MCTS. Also, the concentration for half-maximal inhibition (IC50) with LS-174 MCTS is 17.8 ± 1.2 µM. Further, the “early apoptotic cells (Annexin V-positive/PI-negative)” value in the series with HCT116 cells is listed as 19.14%.

Take `O=C1NCCc2ccccc2-c2[nH]c3ccc(/N=C/c4ccccn4)cc3c21` [HL^1]: the IC50 in the series with A549 (Homo sapiens, A549, 72 h continuous drug action) was > 200 µM; in the series on LS-174 (Homo sapiens, LS174, 72 h continuous drug action), 191 ± 5.8 µM; in the series on MRC-5 (Homo sapiens, MRC5, 72 h continuous drug action), 168 ± 15.8 µM.

As a reminder, the IC50 is the point on the concentration scale where inhibition reaches its midpoint.
